Laboratory results: patent publication US6355799B1, “Substituted benzene compounds, process for their preparation, and herbicidal and defoliant compositions containing them” (ISK Americas Incorporated, priority 1997, dated 2002)

Tests used:
Assay type in all cases: in vivo
[1] = system: green foxtail (Setaria viridis, SETVI); experiment: Pre-emerge test, greenhouse herbicide activity screening; settings: for phytotoxicity rating SETVI: pre-emerge, 14 days after application, scale 0-100; for Pre-emerge herbicidal activity, phytotoxicity rating SETVI: rating scale 0-100, 14 days after application
Excerpt: (§1) A standard greenhouse herbicide activity screening system was used to evaluate the herbicidal efficacy and crop safety of these test compounds. Seven broadleaf weed species including redroot pigweed (Amaranthus retroflexus, AMARE, velvetleaf (Abutilon theophrasti, ABUTH), sicklepod (Cassia obtusifolia, CASOB), ivyleaf morningglory (Ipomoea hederacea, IPOHE), lambsquarters (Chenopodium album, CHEAL), common ragweed (Ambrosia artemisizfolia L., AMBEL), and cocklebur (Xanthium strumarium, XANST) were used as test species. Four grass weed species including green foxtail (Setaria viridis, SETVI), barnyardgrass (Echinochloa crus-galli, ECHCG), johnsongrass (Sorghum halepense, SORHA), and large crabgrass (Digitaria sanguinalis, DIGSA) were also used. In addition, three crop species, field corn (Zea mays L., var. Dekalb 535, CORN), soybean (Glycine max L., var. Pella 86, SOY), and is upland rice (Oryza sp., var. Tebonnet, RICE) were included.
(§2) All plants were grown in 10 cm square plastic pots which were filled with a sandy loam soil mix. For pre-emerge tests, seeds were planted one day prior to application of the test compounds. For post-emerge tests, seeds were planted 8-21 days prior to the test to allow emergence and good foliage development prior to application of the test substances. At the time of the post-emerge application, plants of all species were usually at the 2-3 leaf stage of development.
(§3) All test compounds Were dissolved in acetone and applied to the test units in a volume of 187 l /ha. Test materials were applied at rates ranging from 15 g ai/ha to 1000 g ai/ha using a track sprayer equipped with a TJ8001E even flow flat fan spray nozzle. Plants were arranged on a shelf so that the top of the canopy (post-emerge) or top of the soil surface (pre-emerge) was 40-45 cm below the nozzle. Pressurized air was used to force the test solution through the nozzle as it was mechanically advanced (via electrically driven chain drive) over the top of all test plants/pots. This application simulates a typical commercial field herbicide application.
(§4) In the post-emerge test, a commercial non-ionic surfactant was also included (0.25% v/v) to enhance wetting of the leaf surfaces of target plants. Immediately after application, test units of the pre-emerge applications were watered at the soil surface to incorporate the test materials. Subsequently, these test units were bottom-watered. Post-emerge test units were always bottom-watered.
(§5) At 14 days after application of the test materials, phytotoxicity ratings were recorded. A rating scale of 0-100 was used as previously described in Research Methods in Weed Science, 2nd edition, B. Truelove, Ed., Southern Weed Science Society, Auburn University, Auburn, Ala. 1977. Briefly, “0” corresponds to no damage and “100” corresponds to complete death of all plants in the test unit. This scale was used both to determine efficacy against weed species and damage to crop species. Herbicide activity data for various compounds of this invention, which are shown by compound No. in Tables 1-8, are shown in Tables 11 and 12.

[2] = system: sicklepod (Cassia obtusifolia, CASOB); experiment: as above; settings: for phytotoxicity rating CASOB: pre-emerge, 14 days after application, scale 0-100; for Pre-emerge herbicidal activity, phytotoxicity rating CASOB: rating scale 0-100, 14 days after application
Excerpt: as §1, §2, §3, §4, §5

[3] = system: ivyleaf morningglory (Ipomoea hederacea, IPOHE); experiment: as above; settings: for phytotoxicity rating IPOHE: pre-emerge, 14 days after application, scale 0-100; for Pre-emerge herbicidal activity, phytotoxicity rating IPOHE: rating scale 0-100, 14 days after application
Excerpt: as §1, §2, §3, §4, §5

[4] = system: velvetleaf (Abutilon theophrasti, ABUTH); experiment: as above; settings: for phytotoxicity rating ABUTH: pre-emerge, 14 days after application, scale 0-100; for Pre-emerge herbicidal activity, phytotoxicity rating ABUTH: rating scale 0-100, 14 days after application
Excerpt: as §1, §2, §3, §4, §5

[5] = system: barnyardgrass (Echinochloa crus-galli, ECHCG); experiment: as above; settings: for phytotoxicity rating ECHCG: pre-emerge, 14 days after application, scale 0-100; for Pre-emerge herbicidal activity, phytotoxicity rating ECHCG: rating scale 0-100, 14 days after application
Excerpt: as §1, §2, §3, §4, §5

[6] = system: lambsquarters (Chenopodium album, CHEAL); experiment: as above; settings: for phytotoxicity rating CHEAL: pre-emerge, 14 days after application, scale 0-100; for Pre-emerge herbicidal activity, phytotoxicity rating CHEAL: rating scale 0-100, 14 days after application
Excerpt: as §1, §2, §3, §4, §5

[7] = system: large crabgrass (Digitaria sanguinalis, DIGSA); experiment: as above; settings: for phytotoxicity rating DIGSA: pre-emerge, 14 days after application, scale 0-100; for Pre-emerge herbicidal activity, phytotoxicity rating DIGSA: rating scale 0-100, 14 days after application
Excerpt: as §1, §2, §3, §4, §5

[8] = system: upland rice (Oryza sp., var. Tebonnet, RICE); experiment: Pre-emerge test, crop safety; settings: pre-emerge, 14 days after application, scale 0-100
Excerpt: as §1, §2, §3, §4, §5

[9] = system: field corn (Zea mays L., var. Dekalb 535, CORN); experiment: Pre-emerge test, crop safety; settings: pre-emerge, 14 days after application, scale 0-100
Excerpt: as §1, §2, §3, §4, §5

[10] = system: redroot pigweed (Amaranthus retroflexus, AMARE); experiment: Pre-emerge test, greenhouse herbicide activity screening; settings: for phytotoxicity rating AMARE: pre-emerge, 14 days after application, scale 0-100; for Pre-emerge herbicidal activity, phytotoxicity rating AMARE: rating scale 0-100, 14 days after application
Excerpt: as §1, §2
as §3, with “Test materials were applied at rates ranging from 15 g ai/ha to 1000 g ai/ha using a track sprayer equipped with a TJ8001E even flow flat fan spray nozzle.” left out
as §4, §5

[11] = system: green foxtail (Setaria viridis, SETVI); experiment: Post-emerge test, greenhouse herbicide activity screening; settings: rating scale 0-100 (0 no damage, 100 complete death), 14 days after application
Excerpt: as §1, §2, §3, §4, §5

[12] = system: sicklepod (Cassia obtusifolia, CASOB); experiment: as above; settings: rating scale 0-100 (0 no damage, 100 complete death), 14 days after application
Excerpt: as §1, §2, §3, §4, §5

[13] = system: ivyleaf morningglory (Ipomoea hederacea, IPOHE); experiment: as above; settings: rating scale 0-100 (0 no damage, 100 complete death), 14 days after application
Excerpt: as §1, §2, §3, §4, §5

[14] = system: velvetleaf (Abutilon theophrasti, ABUTH); experiment: as above; settings: rating scale 0-100 (0 no damage, 100 complete death), 14 days after application
Excerpt: as §1, §2, §3, §4, §5

[15] = system: redroot pigweed (Amaranthus retroflexus, AMARE); experiment: as above; settings: rating scale 0-100 (0 no damage, 100 complete death), 14 days after application
Excerpt: as §1, §2, §3, §4, §5

[16] = system: barnyardgrass (Echinochloa crus-galli, ECHCG); experiment: as above; settings: rating scale 0-100 (0 no damage, 100 complete death), 14 days after application
Excerpt: as §1, §2, §3, §4, §5

[17] = system: lambsquarters (Chenopodium album, CHEAL); experiment: as above; settings: rating scale 0-100 (0 no damage, 100 complete death), 14 days after application
Excerpt: as §1, §2, §3, §4, §5

[18] = system: large crabgrass (Digitaria sanguinalis, DIGSA); experiment: as above; settings: rating scale 0-100 (0 no damage, 100 complete death), 14 days after application
Excerpt: as §1, §2, §3, §4, §5

Compound: COc1c(Cl)cc(F)c(-n2c(=O)cc(C(F)(F)F)n(C)c2=O)c1NC(=O)c1cc2ccccc2cc1C [2-157]
- phytotoxicity rating SETVI ([1]; 63 g ai/ha): 30
- phytotoxicity rating SETVI ([1]; 250 g ai/ha): 70
- phytotoxicity rating CASOB ([2]; 63 g ai/ha): 30
- phytotoxicity rating CASOB ([2]; 250 g ai/ha): 90
- phytotoxicity rating IPOHE ([3]; 63 g ai/ha): 40
- phytotoxicity rating IPOHE ([3]; 250 g ai/ha): 100
- phytotoxicity rating ABUTH ([4]; 63 g ai/ha): 100
- phytotoxicity rating ABUTH ([4]; 250 g ai/ha): 100
- phytotoxicity rating ECHCG ([5]; 63 g ai/ha): 30
- phytotoxicity rating ECHCG ([5]; 250 g ai/ha): 95
- phytotoxicity rating CHEAL ([6]; 63 g ai/ha): 100
- phytotoxicity rating CHEAL ([6]; 250 g ai/ha): 100
- phytotoxicity rating DIGSA ([7]; 63 g ai/ha): 35
- phytotoxicity rating DIGSA ([7]; 250 g ai/ha): 70
- phytotoxicity rating RICE (crop damage) ([8]; 63 g ai/ha): 30
- phytotoxicity rating RICE (crop damage) ([8]; 250 g ai/ha): 70
- phytotoxicity rating CORN (crop damage) ([9]; 63 g ai/ha): 0
- phytotoxicity rating CORN (crop damage) ([9]; 250 g ai/ha): 45
- phytotoxicity rating AMARE ([10]; 63 g ai/ha): 100
- phytotoxicity rating AMARE ([10]; 250 g ai/ha): 100

Compound: CCOC(=O)C(Cl)Cc1c(OC)c(Cl)cc(F)c1-n1c(=O)cc(C(F)(F)F)n(C)c1=O (single isomer, unassigned) [Compound 14-5, 3-{4-chloro-2-[2-chloro-2-(ethoxycarbonyl)ethyl]-6-fluoro-3-methoxyphenyl}-1-methyl-6-trifluoromethyl-2,4(1H, 3H)-pyrimidinedione]
- Post-emerge Herbicidal Activity, phytotoxicity rating SETVI ([11]; Rate 63 g ai/ha): 60
- Post-emerge Herbicidal Activity, phytotoxicity rating SETVI ([11]; Rate 250 g ai/ha): 95
- Post-emerge Herbicidal Activity, phytotoxicity rating CASOB ([12]; Rate 63 g ai/ha): 10
- Post-emerge Herbicidal Activity, phytotoxicity rating CASOB ([12]; Rate 250 g ai/ha): 50
- Post-emerge Herbicidal Activity, phytotoxicity rating IPOHE ([13]; Rate 63 g ai/ha): 30
- Post-emerge Herbicidal Activity, phytotoxicity rating IPOHE ([13]; Rate 250 g ai/ha): 100
- Post-emerge Herbicidal Activity, phytotoxicity rating ABUTH ([14]; Rate 63 g ai/ha): 100
- Post-emerge Herbicidal Activity, phytotoxicity rating ABUTH ([14]; Rate 250 g ai/ha): 100
- Post-emerge Herbicidal Activity, phytotoxicity rating AMARE ([15]; Rate 63 g ai/ha): 100
- Post-emerge Herbicidal Activity, phytotoxicity rating AMARE ([15]; Rate 250 g ai/ha): 100
- Post-emerge Herbicidal Activity, phytotoxicity rating ECHCG ([16]; Rate 63 g ai/ha): 40
- Post-emerge Herbicidal Activity, phytotoxicity rating ECHCG ([16]; Rate 250 g ai/ha): 100
- Post-emerge Herbicidal Activity, phytotoxicity rating CHEAL ([17]; Rate 63 g ai/ha): 100
- Post-emerge Herbicidal Activity, phytotoxicity rating CHEAL ([17]; Rate 250 g ai/ha): 100
- Post-emerge Herbicidal Activity, phytotoxicity rating DIGSA ([18]; Rate 63 g ai/ha): 95
- Post-emerge Herbicidal Activity, phytotoxicity rating DIGSA ([18]; Rate 250 g ai/ha): 100
- Pre-emerge herbicidal activity, phytotoxicity rating SETVI ([1]; 63 g ai/ha): 10
- Pre-emerge herbicidal activity, phytotoxicity rating SETVI ([1]; 250 g ai/ha): 60
- Pre-emerge herbicidal activity, phytotoxicity rating CASOB ([2]; 63 g ai/ha): 0
- Pre-emerge herbicidal activity, phytotoxicity rating CASOB ([2]; 250 g ai/ha): 10
- Pre-emerge herbicidal activity, phytotoxicity rating IPOHE ([3]; 63 g ai/ha): 20
- Pre-emerge herbicidal activity, phytotoxicity rating IPOHE ([3]; 250 g ai/ha): 30
- Pre-emerge herbicidal activity, phytotoxicity rating ABUTH ([4]; 63 g ai/ha): 100
- Pre-emerge herbicidal activity, phytotoxicity rating ABUTH ([4]; 250 g ai/ha): 100
- Pre-emerge herbicidal activity, phytotoxicity rating ECHCG ([5]; 63 g ai/ha): 0
- Pre-emerge herbicidal activity, phytotoxicity rating ECHCG ([5]; 250 g ai/ha): 40
- Pre-emerge herbicidal activity, phytotoxicity rating CHEAL ([6]; 63 g ai/ha): 70
- Pre-emerge herbicidal activity, phytotoxicity rating CHEAL ([6]; 250 g ai/ha): 100
- Pre-emerge herbicidal activity, phytotoxicity rating DIGSA ([7]; 63 g ai/ha): 20
- Pre-emerge herbicidal activity, phytotoxicity rating DIGSA ([7]; 250 g ai/ha): 95
- Pre-emerge herbicidal activity, phytotoxicity rating AMARE ([10]; 63 g ai/ha): 70
- Pre-emerge herbicidal activity, phytotoxicity rating AMARE ([10]; 250 g ai/ha): 100
